From patent US20150265514A1, “METHODS OF INHIBITING HAIR GROWTH” (NOGRA PHARMA LIMITED, priority 2012, published 2015) come the findings set out here.

“Also recorded” adds a separate entry of the source.

In data set [1] the test system is anagen VI hair follicles (HFs). The data set is described as follows: Hair shaft elongation in hair follicle organ culture. The format is cell-based, human. As for the experimental part: (§1) Normally pigmented anagen VI hair follicles (HFs) (grey/white HFs were excluded from the study) were microdissected from normal human scalp skin and organ cultured following the Philpott model. Compound A or vehicle was administered once for each change of medium (i.e. every 48 h/72 h).
(§2) Details regarding tissue specimen origin used in the present example are as described in Example 2 above.
Hair shaft length measurements of HFs were performed on individual HFs using a Zeiss inverted binocular microscope with an eyepiece measuring graticule.
(§3) To evaluate apoptotic cells in colocalization with a proliferation marker Ki-67, a Ki-67/terminal dUTP nick-end labeling (TUNEL) double-staining method was used. Cryostat sections were fixed in paraformaldehyde and ethanol-acetic acid (2:1) and labeled with a digoxigenin-deoxy-UTP (ApopTag fluorescein in situ apoptosis detection kit; Intergen, Purchase, N.Y.) in the presence of terminal deoxynucleotidyl transferase, followed by incubation with a mouse anti-Ki-67 antiserum (1:20 in PBS overnight at 4 C; Dako, Glostrup, Denmark). TUNEL-positive cells were visualized by an antidigoxigenin fluorescein isothiocyanate-conjugated antibody (ApopTag kit), whereas Ki-67 was detected by a rhodamine-labeled goat antimouse antibody (Jackson ImmunoResearch, West Grove, Pa.). Negative controls were performed by omitting terminal deoxynucleotidyltransferase and the Ki-67 antibody. Counterstaining was performed with 4′,6-diamidino-2-phenylindole (DAPI) (Roche Molecular Biochemicals GmbH, Mannheim, Germany). Quantitative immunohistomorphometry was performed; Ki-67-, TUNEL-, or DAPI-positive cells were counted in a previously defined reference region of the HF matrix, and the percentage of Ki-67/TUNEL-positive cells were determined. Statistical analysis was performed using a two-tailed Student's t-test for unpaired samples. […] In order to avoid data distortion by individual experiments, rigid exclusion criteria were defined that allowed to exclude one individual experiment (out of 5-6) per read-out parameter. […]

The test system of a further data set is K19. The data set is described as follows: K19 quantitative immunohistochemistry in organ-cultured human scalp hair follicles. Format: cell-based. The following applies: for Keratin 19 immunoreactivity: all concentrations tested. Here is the method: (§4) Normal human scalp skin was obtained from 6 women undergoing routine face-lift surgery after informed consent. All experiments were performed according to Helsinki guidelines, with appropriate ethics committee approval.
as §1
A previously described protocol was used to investigate K19 expression (Kloepper et al., 2008). Briefly, acetone-fixed cryosections were pre-treated with goat serum (10% in Tris-buffered saline, Dako). The sections were incubated first with primary antibodies against K19 (mouse anti-human: K19-1:10; overnight, at 4° C.; PROGEN, Heidelberg, Germany;) and then with FITC-labeled goat anti-mouse (1:200 in TBS, for 45 min, RT, Jackson ImmunoResearch) immunoglobulins as secondary antibodies. Counterstaining was performed with DAPI (Boehringer Mannheim, Mannheim, Germany). The intensity of this immunostaining was quantified by ImageJ software (National Institutes of Health). The staining intensity of defined reference regions in the HF was measured and compared between control and Compound A-treated groups. The percentage of K19-positive cells in comparison to the total amount of cells in the ORS was calculated.
Statistical analysis was performed using a two-tailed Student's t-test for unpaired samples. For meta-analysis purposes, a total of six assays (each with HFs from a different female individual) were run. […] In order to avoid data distortion by individual experiments, rigid exclusion criteria were defined that allowed to exclude one individual experiment (out of 5-6) per read-out parameter. Since these exclusion criteria differed for each study parameter, different experiments (i.e. one out of 6, and one out of 5 in the case of keratin 19 analysis) were excluded for each assay parameter. The exclusion criteria were: (i) most extreme deviation from the results trend shown by the majority among the 6 experiments, in order to avoid data distortion by outliers (which can be affected e.g. by patient's medication, medical history etc.); and (ii) failure to meet minimal quality criteria.

For data set [2], the system named is anagen VI hair follicles (HFs). The data set is described as follows: HF cycle staging (anagen/catagen) in hair follicle organ culture. The format is cell-based, human. Here is the method: as §1, §2
HF cycle staging was carried out according to previously defined morphological criteria, and the percentage of HFs in anagen and early, mid, or late catagen was determined.
as §3

In data set [3] the test system is anagen VI hair follicles (HFs). The data set is described as follows: LDH activity in supernatant of hair follicle organ culture (cytotoxicity). The following applies: for LDH activity in the supernatant: 0.1 mM dose, day 6, pooled data. Format: cell-based, human. Here is the method: as §1, §2
LDH activity in the supernatant can serve as an indicator of cytotoxicity and was measured following the manufacturer's instructions (Cytotoxicity Detection Kit; Roche, Mannheim, Germany). The absorbance of the samples was measured at 490 nm using an ELISA plate-reader.
as §3, with “determined.” for “determined. Statistical analysis was performed using a two-tailed Student's t-test for unpaired samples.”

The next data set relates to keratin K15. The data set is described as follows: K15 quantitative immunohistochemistry in organ-cultured human scalp hair follicles. The note with it: human scalp HF organ culture; for Keratin-15 immunoreactivity: all concentrations tested, pooled data. Format: cell-based. As for the experimental part:
as §4, §1
To investigate keratin K15 expression, the tyramide signal amplification method was used as previously described (Kloepper et al., 2008). Briefly, acetone fixed cryosections were washed three times for 5 min using TNT (Tris-HCL NaCl Tween) buffer (0.1 mol/1 Tris-HCl, pH 7.5; containing 0.15 mol/1 NaCl and 0.05% Tween 20). Next, horseradish peroxidase was blocked by washing with 3% H2O2 in phosphate-buffered saline (PBS) for 15 min. Preincubation was performed with the incubation of avidin and biotin for 15 min and 5% goat normal serum in TNT for 30 min with washing steps in between. Mouse anti-human K15 (clone LHK15, Chemicon, Billerica, USA) was diluted in TNT and incubated overnight at 4° C. followed by a biotinylated secondary antibody goat anti-mouse (1:200 in TNT) for 45 min at RT. Next, streptavidin horseradish peroxidase (TSA kit; Perkin-Elmer, Boston, Mass., USA) was administered (1:100 in TNT) for 30 min at RT. […] The intensity of the immunostaining was quantified by ImageJ software (National Institutes of Health). The staining intensity of defined reference regions in the HF was measured and compared between control and N Compound A-treated groups. The percentage of K15-positive cells in comparison to the total amount of cells in the ORS was calculated.
Statistical analysis was performed using a two-tailed Student's t-test for unpaired samples. […] In order to avoid data distortion by individual experiments, rigid exclusion criteria were defined that allowed to exclude one individual experiment (out of 5-6) per read-out parameter. […]

The mark [4] stands for this setting: listed as N-acetyl-(R)-(−)-3-(4-aminophenyl)-2-methoxypropionic acid.

As for `CO[C@H](Cc1ccc(NC(C)=O)cc1)C(=O)O` [Compound A, N-acetyl-(R)-(−)-3-(4-aminophenyl)-2-methoxypropionic acid], the hair shaft elongation entry is given as “slightly, but significantly, inhibited; also recorded: inhibits hair shaft elongation” in data set [1] (high dose (1 mM), day 6, pooled data); “inhibition” in data set [1] (high dose (1 mM), day 6, pooled data, listed as N-acetyl-(R)-(−)-3-(4-aminophenyl)-2-methoxypropionic acid); “did not have an effect” in data set [1] (lower concentrations (below 1 mM)). For the same molecule, the “Keratin 19 immunoreactivity” value in the data set with K19 (human scalp HF organ culture, pooled data) is reported as “strongly stimulated”; in the data set with K19 (human scalp HF organ culture, pooled data, listed as N-acetyl-(R)-(−)-3-(4-aminophenyl)-2-methoxypropionic acid), “stimulation”. Further, the “number of K19-positive cells relative to control” value in the data set on K19 (human scalp HF organ culture) is recorded as “stimulating effect”. Also, the “numbers of K19 positive cells” value in the data set on K19 (low and high concentrations, pooled data) is reported as “increased numbers”. Besides, the “hair cycle effect (catagen)” value in data set [2] (all concentrations, pooled data) was “induced catagen; also recorded: catagen-inducing effect”; in data set [2] (analysis of the individual 5 experiments, percentage of each hair cycle stage, n=5) it was “strong trend towards induction of catagen”; in data set [2] (analysis of the individual 5 experiments, percentage of each hair cycle stage, n=5, listed as N-acetyl-(R)-(−)-3-(4-aminophenyl)-2-methoxypropionic acid), “trend toward catagen”. Moreover, the “LDH activity in the supernatant” value in data set [3] was “slight increase”; in data set [3] (setting [4]) it was “increase”. For the same molecule, the “HF toxicity under assay conditions” value in data set [3] (concluded from LDH activity) is “very low, if any”. Moreover, the Keratin-15 immunoreactivity entry was “strongly stimulated” in the data set with keratin K15 and “stimulation” in the data set with keratin K15 (setting [4]). In addition, the “number of K15-positive cells” value with keratin K15 is recorded as “did not increase”.
